Data from patent US8450313B2, “2,3-diaryl- or heteroaryl-substituted 1,1,1-trifluoro-2-hydroxypropyl compounds” (Hoffmann-La Roche Inc., priority 2009, dated 2013).

Target: T1, full length human recombinant glucocorticoid receptor (Homo sapiens, UniProt P04150)
T1 construct: It contains some partially purified full length human recombinant glucocorticoid receptor; purchased Panvera/Invitrogen PV4302
T1 sequence (P04150 1-777): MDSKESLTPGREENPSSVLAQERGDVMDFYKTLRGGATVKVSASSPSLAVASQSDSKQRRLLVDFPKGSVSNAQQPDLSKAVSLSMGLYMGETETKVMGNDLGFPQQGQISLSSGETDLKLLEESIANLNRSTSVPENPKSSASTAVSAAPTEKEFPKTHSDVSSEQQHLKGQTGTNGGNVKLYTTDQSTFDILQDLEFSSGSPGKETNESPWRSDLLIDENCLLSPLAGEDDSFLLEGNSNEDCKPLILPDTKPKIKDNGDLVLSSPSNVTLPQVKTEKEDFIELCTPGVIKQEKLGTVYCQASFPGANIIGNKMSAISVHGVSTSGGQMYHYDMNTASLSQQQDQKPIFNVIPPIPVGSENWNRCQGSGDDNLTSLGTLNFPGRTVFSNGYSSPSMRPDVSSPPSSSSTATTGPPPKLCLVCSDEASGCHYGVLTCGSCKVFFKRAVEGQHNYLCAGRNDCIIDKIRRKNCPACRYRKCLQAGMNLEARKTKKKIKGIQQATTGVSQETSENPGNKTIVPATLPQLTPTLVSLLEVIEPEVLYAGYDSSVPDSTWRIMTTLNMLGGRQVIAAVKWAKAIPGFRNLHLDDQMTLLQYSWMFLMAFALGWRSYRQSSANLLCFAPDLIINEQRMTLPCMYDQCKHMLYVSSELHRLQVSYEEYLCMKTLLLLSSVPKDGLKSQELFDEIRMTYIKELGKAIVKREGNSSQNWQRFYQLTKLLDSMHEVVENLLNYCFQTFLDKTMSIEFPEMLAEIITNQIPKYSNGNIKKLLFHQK
Test: Glucocorticoid Receptor Binding Assay (Glucocorticoid Receptor Competitor Assay far red kit, fluorescence polarization)
Conditions: competition with fluorescent GR ligand Fluormone GS Far Red, 3 hours at 22° C., pH 7.4; Ki calculated from IC50 by Cheng-Prusoff
In short: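 Compounds in serial dilution (from intermediate 4.2% DMSO stock) displace Fluormone GS Far Red from full-length human recombinant GR with stabilizing peptide, pH 7.4, incubated 3 hours at 22° C dark. Polarized fluorescence (610–660 nm) gives IC50 via sigmoidal fit, converted to Ki by Cheng-Prusoff.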

Row | SMILES | Ki [nM]
1 | C[C@H](c1ccc(-c2cccc(C(=O)O)c2)cc1Cl)[C@@](O)(c1ccc2c(c1)n(C)c(=O)n2C)C(F)(F)F (stereo in doubt) [Example 78, 3′-Chloro-4′-[2-(1,3-dimethyl-2-oxo-2,3-dihydro-1H-benzoimidazol-5-yl)-3,3,3-trifluoro-2-hydroxy-1-methyl-propyl]-biphenyl-3-carboxylic acid] | 1.3
2 | C[C@H](c1ccc(-c2ccc(Cl)c(C(=O)O)c2)cc1Cl)[C@@](O)(c1ccc2c(c1)n(C)c(=O)n2C)C(F)(F)F (stereo in doubt) [Example 79, 4,3′-Dichloro-4′-[2-(1,3-dimethyl-2-oxo-2,3-dihydro-1H-benzoimidazol-5-yl)-3,3,3-trifluoro-2-hydroxy-1-methyl-propyl]-biphenyl-3-carboxylic acid] | 1
3 | COc1cc(-c2ccc([C@@H](C)[C@@](O)(c3ccc4c(c3)n(C)c(=O)n4C)C(F)(F)F)c(Cl)c2)ccc1C(=O)O (stereo in doubt) [Example 80, 3′-Chloro-4′-[2-(1,3-dimethyl-2-oxo-2,3-dihydro-1H-benzoimidazol-5-yl)-3,3,3-trifluoro-2-hydroxy-1-methyl-propyl]-3-methoxy-biphenyl-4-carboxylic acid] | 13.6
4 | C[C@H](c1ccc(-c2ccc(C(=O)O)cc2Cl)cc1Cl)[C@@](O)(c1ccc2c(c1)n(C)c(=O)n2C)C(F)(F)F (stereo in doubt) [Example 81, 2,3′-Dichloro-4′-[2-(1,3-dimethyl-2-oxo-2,3-dihydro-1H-benzoimidazol-5-yl)-3,3,3-trifluoro-2-hydroxy-1-methyl-propyl]-biphenyl-4-carboxylic acid] | 1.4
5 | C[C@H](c1ccc(-c2ccc(CC(=O)O)cc2)cc1Cl)[C@@](O)(c1ccc2c(c1)n(C)c(=O)n2C)C(F)(F)F (stereo in doubt) [Example 82, {3′-Chloro-4′-[2-(1,3-dimethyl-2-oxo-2,3-dihydro-1H-benzoimidazol-5-yl)-3,3,3-trifluoro-2-hydroxy-1-methyl-propyl]-biphenyl-4-yl}-acetic acid] | 7
6 | C[C@H](c1ccc(-c2cccc(CC(=O)O)c2)cc1Cl)[C@@](O)(c1ccc2c(c1)n(C)c(=O)n2C)C(F)(F)F (stereo in doubt) [Example 83, {3′-Chloro-4′-[2-(1,3-dimethyl-2-oxo-2,3-dihydro-1H-benzoimidazol-5-yl)-3,3,3-trifluoro-2-hydroxy-1-methyl-propyl]-biphenyl-3-yl}-acetic acid] | 2.2
7 | C[C@@H](c1ccc(Oc2ccc(C(=O)O)c(F)c2)cc1Cl)[C@](O)(c1ccc2c(c1)n(C)c(=O)n2C)C(F)(F)F (stereo in doubt) [Example 88, 4-{3-Chloro-4-[2-(1,3-dimethyl-2-oxo-2,3-dihydro-1H-benzoimidazol-5-yl)-3,3,3-trifluoro-2-hydroxy-1-methyl-propyl]-phenoxy}-2-fluoro-benzoic acid] | 0.7
8 | C[C@@H](c1ccc(Oc2ccc(CC(=O)O)cc2)cc1Cl)[C@](O)(c1ccc2c(c1)n(C)c(=O)n2C)C(F)(F)F (stereo in doubt) [Example 89, (4-{3-Chloro-4-[2-(1,3-dimethyl-2-oxo-2,3-dihydro-1H-benzoimidazol-5-yl)-3,3,3-trifluoro-2-hydroxy-1-methyl-propyl]-phenoxy}-phenyl)-acetic acid] | 1.1
9 | C[C@@H](c1ccc(Oc2ccc(C(=O)O)c(Cl)c2)cc1Cl)[C@](O)(c1ccc2c(c1)n(C)c(=O)n2C)C(F)(F)F (stereo in doubt) [Example 90, 2-Chloro-4-{3-chloro-4-[2-(1,3-dimethyl-2-oxo-2,3-dihydro-1H-benzoimidazol-5-yl)-3,3,3-trifluoro-2-hydroxy-1-methyl-propyl]-phenoxy}-benzoic acid] | 0.4
10 | C[C@H](c1ccc(Oc2ccc(C(=O)O)c(Cl)n2)cc1Cl)[C@@](O)(c1ccc2c(c1)n(C)c(=O)n2C)C(F)(F)F (stereo in doubt) [Example 92, 2-Chloro-6-{3-chloro-4-[2-(1,3-dimethyl-2-oxo-2,3-dihydro-1H-benzoimidazol-5-yl)-3,3,3-trifluoro-2-hydroxy-1-methyl-propyl]-phenoxy}-nicotinic acid] | 0.6
11 | C[C@H](c1ccc(Oc2ccc(OCC(=O)O)cc2)cc1Cl)[C@@](O)(c1ccc2c(c1)n(C)c(=O)n2C)C(F)(F)F (stereo in doubt) [Example 93, (4-{3-Chloro-4-[2-(1,3-dimethyl-2-oxo-2,3-dihydro-1H-benzoimidazol-5-yl)-3,3,3-trifluoro-2-hydroxy-1-methyl-propyl]-phenoxy}-phenoxy)-acetic acid] | 0.3
12 | C[C@H](c1ccc(Oc2cccc(OCC(=O)O)c2)cc1Cl)[C@@](O)(c1ccc2c(c1)n(C)c(=O)n2C)C(F)(F)F (stereo in doubt) [Example 94, (3-{3-Chloro-4-[2-(1,3-dimethyl-2-oxo-2,3-dihydro-1H-benzoimidazol-5-yl)-3,3,3-trifluoro-2-hydroxy-1-methyl-propyl]-phenoxy}-phenoxy)-acetic acid] | 0.3
13 | C[C@H](c1ccc(Oc2ccc(C(=O)O)nc2)cc1Cl)[C@@](O)(c1ccc2c(c1)n(C)c(=O)n2C)C(F)(F)F (stereo in doubt) [Example 95, 5-{3-Chloro-4-[2-(1,3-dimethyl-2-oxo-2,3-dihydro-1H-benzoimidazol-5-yl)-3,3,3-trifluoro-2-hydroxy-1-methyl-propyl]-phenoxy}-pyridine-2-carboxylic acid] | 5.3
14 | C[C@H](c1ccc(Oc2ccc(Cl)cc2C(=O)O)cc1Cl)[C@@](O)(c1ccc2c(c1)n(C)c(=O)n2C)C(F)(F)F (stereo in doubt) [Example 100, 5-Chloro-2-{3-chloro-4-[2-(1,3-dimethyl-2-oxo-2,3-dihydro-1H-benzoimidazol-5-yl)-3,3,3-trifluoro-2-hydroxy-1-methyl-propyl]-phenoxy}-benzoic acid] | 1.9
15 | C[C@@H](c1ccc(Oc2ccc(C(=O)O)cn2)cc1Cl)[C@](O)(c1ccc2c(c1)n(C)c(=O)n2C)C(F)(F)F (stereo in doubt) [Example 101, 6-{3-Chloro-4-[2-(1,3-dimethyl-2-oxo-2,3-dihydro-1H-benzoimidazol-5-yl)-3,3,3-trifluoro-2-hydroxy-1-methyl-propyl]-phenoxy}-nicotinic acid] | 1.1
16 | C[C@H](c1ccc(Oc2ncc(Cl)cc2C(=O)O)cc1Cl)[C@@](O)(c1ccc2c(c1)n(C)c(=O)n2C)C(F)(F)F (stereo in doubt) [Example 104, 5-Chloro-2-{3-chloro-4-[2-(1,3-dimethyl-2-oxo-2,3-dihydro-1H-benzoimidazol-5-yl)-3,3,3-trifluoro-2-hydroxy-1-methyl-propyl]-phenoxy}-nicotinic acid] | 1.6
17 | C[C@H](c1ccc(Oc2ncccc2C(=O)O)cc1Cl)[C@@](O)(c1ccc2c(c1)n(C)c(=O)n2C)C(F)(F)F (stereo in doubt) [Example 105, 2-{3-Chloro-4-[2-(1,3-dimethyl-2-oxo-2,3-dihydro-1H-benzoimidazol-5-yl)-3,3,3-trifluoro-2-hydroxy-1-methyl-propyl]-phenoxy}-nicotinic acid] | 14.8
18 | C[C@H](c1ccc(Oc2ncc(C(=O)O)cc2Cl)cc1Cl)[C@@](O)(c1ccc2c(c1)n(C)c(=O)n2C)C(F)(F)F (stereo in doubt) [Example 107, 5-Chloro-6-{3-chloro-4-[2-(1,3-dimethyl-2-oxo-2,3-dihydro-1H-benzoimidazol-5-yl)-3,3,3-trifluoro-2-hydroxy-1-methyl-propyl]-phenoxy}-nicotinic acid] | 0.4
19 | C[C@H](c1ccc(Oc2cc(Cl)ncc2C(=O)O)cc1Cl)[C@@](O)(c1ccc2c(c1)n(C)c(=O)n2C)C(F)(F)F (stereo in doubt) [Example 108, 6-Chloro-4-{3-chloro-4-[2-(1,3-dimethyl-2-oxo-2,3-dihydro-1H-benzoimidazol-5-yl)-3,3,3-trifluoro-2-hydroxy-1-methyl-propyl]-phenoxy}-nicotinic acid] | 10.4
20 | C[C@H](c1ccc(Oc2cc(Cl)c(C(=O)O)cn2)cc1Cl)[C@@](O)(c1ccc2c(c1)n(C)c(=O)n2C)C(F)(F)F (stereo in doubt) [Example 109, 4-Chloro-6-{3-chloro-4-[2-(1,3-dimethyl-2-oxo-2,3-dihydro-1H-benzoimidazol-5-yl)-3,3,3-trifluoro-2-hydroxy-1-methyl-propyl]-phenoxy}-nicotinic acid] | 1.1
21 | C[C@H](c1ccc(Oc2cc(C(=O)O)c(C(F)(F)F)cn2)cc1Cl)[C@@](O)(c1ccc2c(c1)n(C)c(=O)n2C)C(F)(F)F (stereo in doubt) [Example 110, 2-{3-Chloro-4-[2-(1,3-dimethyl-2-oxo-2,3-dihydro-1H-benzoimidazol-5-yl)-3,3,3-trifluoro-2-hydroxy-1-methyl-propyl]-phenoxy}-5-trifluoromethyl-isonicotinic acid] | 2.1
